# Source: US20230226034A1, “PROPHYLACTIC OR THERAPEUTIC AGENT FOR PHOTODERMATOSIS” (MITSUBISHI TANABE PHARMA CORPORATION, priority 2020, published 2023)
# Marks after values point to notes of the source that are not given here.
# How the values were obtained:
# [1] = test system: Male albino hairless mice (Hos:HR-1); assay: UV-A irradiated mouse photoaging model: skin wrinkles by visual observation; assay type: in vivo; settings: 3 mg/kg once daily for 8 weeks (compound B oral, HP-228 intraperitoneal); score 0 to 3; FIG. 3
# From the text: (§1) Male albino hairless mice (strain name: Hos:HR-1, Hoshino Laboratory Animals Inc.) were used. The mice were divided into groups so that the body weight of each group was homogenous, and from the next day, the dorsal skin of the mice was irradiated with an incremental amount of ultraviolet A at the frequency of five times a week for 8 weeks to induce photoaging in the groups other than the untreated group. The UV-A irradiation schedule was based on the report by Minami et al. (J Nutrition Biochem 2009, 20, 389).
# (§2) Compound B: The required amount was weighed as free-form equivalent, and suspended in 0.5% MC to achieve the target concentration, and orally administered at a volume of 0.1 mL/10 g (body weight) at 3 mg/kg once daily for 8 weeks.
# (§3) HP-228 (reference control, melanocortin receptor-activating peptide): The required amount of free-form was weighed and dissolved in PBS to achieve the target concentration. 0.1 mL/10 g (body weight) was injected intraperitoneally at 3 mg/kg once daily for 8 weeks.
# Evaluation of skin wrinkles by visual observation (evaluation item a): The state of skin wrinkles was evaluated on a four-step scale from score 0 (fine wrinkles) to 3 (deep and coarse wrinkles) at a frequency of once a week for 8 weeks after UV-A irradiation.
# The skin wrinkle score was tested by Mann-Whitney's U test adjusted for multiplicity, and the significance level was set at 0.05. […]
# type I collagen = assay: UV-A irradiated mouse photoaging model: type I collagen content in the skin; assay type: in vivo; settings: 3 mg/kg once daily for 8 weeks (compound B oral, HP-228 intraperitoneal); FIG. 4
# From the text: as §1, §2, §3
# Quantification of type I collagen content in the skin (evaluation item b): Mice were euthanized 8 weeks after UV-A irradiation, and their back skin was collected. Homogenates were prepared by adding acetic acid and pepsin to the collected skin. The amount of collagen in the skin homogenate, which was reduced by UV-A, was measured using the Mouse Collagen Type I ELISA Kit. […]
# [2] = test system: cyclobutane pyrimidine dimer (CPD); assay: UV-A irradiated mouse photoaging model: skin histology, CPD immunostaining; assay type: in vivo
# From the text: as §1, §2, §3
# Skin histological examination (endpoint c): Skin samples were fixed in 10% neutral buffered formalin and paraffin sections were prepared. DNA damage induced by UV-A was detected by enzyme-antibody immunostaining using anti-cyclobutane pyrimidine dimer (CPD) antibody (Cosmo Bio).
# [3] = test system: Male C57BL/6JHamSlc-Ay/+ mice; assay: Effect on darkening of mouse body hair; assay type: in vivo; settings: day 6
# Experimental: Male C57BL/6JHamSlc-Ay/+ mice (Japan SLC, Inc.) were used. The test was performed with 29- or 30-days old mice, in order to use each individual whose hair cycle was at the anagen stage. The hair on the back of each of the mice was shaved with a clipper before the starting of administration, and any individual with no bad conditions such as nicks and maculae on the skin was selected, and subjected to grouping based on a group configuration shown in Table 3 by performing a simulation method so that the body weights in respective groups were uniform. Administration (also including preparation) of the test substance and evaluation of body hair were performed separately by respective different experimenters, and such evaluation was performed in a blinded manner. The starting date of administration was set to day 0, and the test substance was administered once daily for 6 days (day 0 to day 5).
# The compound was orally administered at a volume of 0.1 mL/10 g (body weight).
# NDP-αMSH (control drug): a required amount of compound was weighed as free-form equivalent, and dissolved in Dulbecco's phosphate-buffered saline (PBS) at a concentration of 0.4 mg/mL. The drug was subcutaneously administered at a volume of 0.05 mL/10 g (body weight).
# Evaluation and sampling were performed on day 6. The mice were euthanized by cervical dislocation, thereafter subjected to hair shaving of each back with a clipper, and each individual was rated as positive (+) or negative (−) by the degree of darkening of body hair.
# A statistical analysis was performed by SAS, and the significance level was 0.05. A 0.5% MC administration group and an NDP-αMSH group were analyzed by Fisher's exact probability test. […] The fixed-order test was performed by Fisher's exact probability test from a higher dose, and, if significant, performing analysis at a lower dose.
# [4] = test system: tyrosinase-related protein 1 (TYRP1); assay: Expression of melanin-related gene TYRP1 in skin, clinical trial in healthy subjects; assay type: in vivo, human; settings: back skin mRNA, next day versus day before administration
# [5] = test system: premelanosome protein (PMEL); assay: Expression of melanin-related gene PMEL in skin, clinical trial in healthy subjects; assay type: in vivo, human; settings: back skin mRNA, next day versus day before administration
# skin of healthy subjects = settings: FIG. 2
# [6] = test system: Mouse melanoma derived cell line B16F1 cells; assay: Melanin production assay in mouse melanoma cell line
# Experimental: The following procedure was used to evaluate the effect of a MC1R agonist on melanin production from mouse melanoma cell lines.
# Mouse melanoma derived cell line B16F1 cells were used in measurement of melanin production. B16F1 cells were cultured by using Dulbecco's Modified Eagle Medium (DMEM) containing 10% fetal bovine serum (FBS) and 100 U/mL Penicillin-Streptomycin.
# One experiment was performed in triplicate, and three independent experiments were performed.
# In consideration of the correspondence of each experiment, the difference in % value from a negative control was determined by performing a two-way Dunnett's test based on each group and the number of experiments as factors. The significance level here was 5% on both sides. Such analysis was performed with SAS.
# [7] = grade + (Slight), dorsal skin, UVA irradiated, 10 animals, 3 mg/kg for 8 weeks
# [8] = grade ± (Minimal), dorsal skin, UVA irradiated, 10 animals, 3 mg/kg for 8 weeks
# [9] = 0.003 mg/kg p.o. once daily for 6 days
# [10] = 0.03 mg/kg p.o. once daily for 6 days
# [11] = 0.3 mg/kg p.o. once daily for 6 days
# [12] = 3 mg/kg p.o. once daily for 6 days
structure (smiles),measurement,setting,value
"CCO[C@H]1CC[C@H](N2C[C@@H](c3ccc(OC)cc3)[C@](OC)(C(=O)N3C[C@H](c4ccc(C(F)(F)F)cc4N4CCC(C(=O)O)CC4)C[C@H]3COC)C2)CC1.Cl.Cl (relative stereo) [Compound B, 1-{2-[(3S,5S)-1-[(3R,4R)-1-(trans-4-ethoxycyclohexyl)-3-methoxy-4-(4-methoxyphenyl)pyrrolidin-3-yl]carbonyl}-5-(methoxymethyl)pyrrolidin-3-yl]-5-(trifluoromethyl)phenyl piperidine-4-carboxylic acid, 2 hydrochloride]",skin wrinkle scores,[1],lower or tended to be lower than those of the vehicle control group
same,amount of type I collagen in the skin,type I collagen,significantly higher than that of the vehicle control group
same,Epidermal CPD staining,"[2]; 3 mg/kg once daily for 8 weeks (compound B oral, HP-228 intraperitoneal)",tended to be less positive than in the vehicle control group
same,"Number of animals, CPDs immunostaining, Cells in dermis, grading +",[2]; [7],10
same,"Number of animals, CPDs immunostaining, Epidermis (cell nuclei), grading +",[2]; [7],1
same,"Number of animals, CPDs immunostaining, Hair follicles in dermis (cell nuclei), grading +",[2]; [7],1
same,"Number of animals, CPDs immunostaining, Sebaceous glands (cell nuclei), grading +",[2]; [7],9
same,"Number of animals, CPDs immunostaining, Epidermis (cell nuclei), grading ++","[2]; grade ++ (Moderate), dorsal skin, UVA irradiated, 10 animals, 3 mg/kg for 8 weeks",6
same,"Number of animals, CPDs immunostaining, Epidermis (cell nuclei), grading +++","[2]; grade +++ (Severe), dorsal skin, UVA irradiated, 10 animals, 3 mg/kg for 8 weeks",3
same,"Number of animals, CPDs immunostaining, Hair follicles in dermis (cell nuclei), grading ±",[2]; [8],9
same,"Number of animals, CPDs immunostaining, Other tissues (incl. cytoplasm in sebaceous glands), grading ±",[2]; [8],10
same,"Number of animals, CPDs immunostaining, Sebaceous glands (cell nuclei), grading ±",[2]; [8],1
"COC[C@H]1CN(C(=O)[C@]2(F)CN(C3CCCC3)C[C@H]2c2ccc(OC)cc2)C[C@@H]1c1ccc(C(F)(F)F)cc1N1CCC(C(=O)O)CC1 [Compound A, Cocrystal of 1-{2-[(3S,4R)-1-{[(3R,4R)-1-cyclopentyl-3-fluoro-4-(4-methoxyphenyl)pyrrolidin-3-yl]carbonyl}-4-(methoxymethyl)pyrrolidin-3-yl]-5-(trifluoromethyl)phenyl}piperidine-4-carboxylic acid with phosphoric acid]",Number of mice Negative (darkening of body hair),[3]; [9],7
same,Number of mice Positive (darkening of body hair),[3]; [9],0
same,Number of mice Negative (darkening of body hair),[3]; [10],7
same,Number of mice Positive (darkening of body hair),[3]; [10],0
same,Number of mice Negative (darkening of body hair),[3]; [11],0
same,Number of mice Positive (darkening of body hair),[3]; [11],7**
same,Number of mice Negative (darkening of body hair),[3]; [12],0
same,Number of mice Positive (darkening of body hair),[3]; [12],7**
same,TYRP1 Rate of changes (times),[4]; 30 mg single oral dose,1.3 times
same,TYRP1 Rate of changes (times),[4]; 100 mg single oral dose,1.37 times
same,TYRP1 Rate of changes (times),[4]; 300 mg single oral dose,2.14 times
same,TYRP1 Rate of changes (times),[4]; 600 mg single oral dose,2.65 times
same,PMEL Rate of changes (times),[5]; 30 mg single oral dose,1.22 times
same,PMEL Rate of changes (times),[5]; 100 mg single oral dose,1.77 times
same,PMEL Rate of changes (times),[5]; 300 mg single oral dose,2.49 times
same,PMEL Rate of changes (times),[5]; 600 mg single oral dose,3.54 times
same,increase in melanin density of the skin,"skin of healthy subjects; 450 mg orally once daily for 14 days, subjects Fitzpatrick Type V",no increase in melanin density
same,increase in melanin density of the skin: time of maximum,skin of healthy subjects; 150 and 300 mg orally once daily for 14 days,maximum on day 15
same,melanin production,"[6]; B16F1 cells, 3 days, FIG. 1",induced melanin production in a concentration-dependent manner
same,EC50,"[6]; Mus musculus, B16-F1, 72 h, read-out: EC50 value, melanin production",0.013 nM
